In PubChem BioAssay (NCI):
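Where inhibition never reached the appropriate level, the endpoint shown equals the highest concentration tested. Otherwise, values were interpolated linearly from a five-concentration, 48-hour dose response in 96-well plates. TGI denotes the concentration required for complete inhibition of growth.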

How the values were obtained:
Assay in all cases: NCI-60 cell line screen, 48 h
SK-MEL-5 melanoma = system: SK-MEL-5 melanoma
SK-OV-3 ovarian = system: SK-OV-3 ovarian
HOP-62 NSCLC = system: HOP-62 NSCLC
OVCAR-5 ovarian = system: OVCAR-5 ovarian
KM12 colon = system: KM12 colon
SF-268 CNS = system: SF-268 CNS
786-0 renal = system: 786-0 renal
HS 578T breast = system: HS 578T breast
NCI-H23 lung = system: NCI-H23 lung
NCI-H522 lung = system: NCI-H522 lung
LOX IMVI melanoma = system: LOX IMVI melanoma
U251 CNS = system: U251 CNS
CCRF-CEM leukemia = system: CCRF-CEM leukemia
SNB-19 CNS = system: SNB-19 CNS
SW-620 colon = system: SW-620 colon
SN12C renal = system: SN12C renal
M14 melanoma = system: M14 melanoma
NCI/ADR-RES ovarian = system: NCI/ADR-RES ovarian
OVCAR-4 ovarian = system: OVCAR-4 ovarian
HOP-92 NSCLC = system: HOP-92 NSCLC
HCC-2998 colon = system: HCC-2998 colon
EKVX NSCLC = system: EKVX NSCLC
SF-295 CNS = system: SF-295 CNS
K-562 leukemia = system: K-562 leukemia
MALME-3M melanoma = system: MALME-3M melanoma
MOLT-4 leukemia = system: MOLT-4 leukemia
RPMI-8226 leukemia = system: RPMI-8226 leukemia
TK-10 renal = system: TK-10 renal
COLO 205 colon = system: COLO 205 colon
SNB-75 CNS = system: SNB-75 CNS
UACC-257 melanoma = system: UACC-257 melanoma
OVCAR-3 ovarian = system: OVCAR-3 ovarian
MDA-MB-231 breast = system: MDA-MB-231 breast
CAKI-1 renal = system: CAKI-1 renal
SR leukemia = system: SR leukemia
MDA-MB-435 = system: MDA-MB-435
UO-31 renal = system: UO-31 renal
SF-539 CNS = system: SF-539 CNS
DU-145 prostate = system: DU-145 prostate
BT-549 breast = system: BT-549 breast
HCT-116 colon = system: HCT-116 colon
OVCAR-8 ovarian = system: OVCAR-8 ovarian
MCF7 breast = system: MCF7 breast
A549 NSCLC = system: A549 NSCLC
IGROV1 ovarian = system: IGROV1 ovarian
A498 renal = system: A498 renal
MDA-N = system: MDA-N
NCI-H460 lung = system: NCI-H460 lung
HT29 colon = system: HT29 colon
NCI-H226 lung = system: NCI-H226 lung
SK-MEL-28 melanoma = system: SK-MEL-28 melanoma
RXF 393 renal = system: RXF 393 renal
SK-MEL-2 melanoma = system: SK-MEL-2 melanoma
HCT-15 colon = system: HCT-15 colon
T-47D breast = system: T-47D breast
UACC-62 melanoma = system: UACC-62 melanoma
PC-3 prostate = system: PC-3 prostate
ACHN renal = system: ACHN renal
HL-60(TB) leukemia = system: HL-60(TB) leukemia

O=C(O)CNC(=O)c1cccc2c(=O)c3ccccc3[nH]c12
TGI (SK-MEL-5 melanoma): > 100 µM
TGI (SK-OV-3 ovarian): > 100 µM
TGI (HOP-62 NSCLC): > 100 µM
TGI (OVCAR-5 ovarian): > 100 µM
TGI (KM12 colon): > 86.4 µM
TGI (SF-268 CNS): > 100 µM
TGI (786-0 renal): > 100 µM
TGI (HS 578T breast): > 100 µM
TGI (NCI-H23 lung): > 100 µM
TGI (NCI-H522 lung): > 100 µM
TGI (LOX IMVI melanoma): > 100 µM
TGI (U251 CNS): > 100 µM
TGI (CCRF-CEM leukemia): > 100 µM
TGI (SNB-19 CNS): > 100 µM
TGI (SW-620 colon): > 100 µM
TGI (SN12C renal): > 100 µM
TGI (M14 melanoma): > 100 µM
TGI (NCI/ADR-RES ovarian): > 100 µM
TGI (OVCAR-4 ovarian): > 100 µM
TGI (HOP-92 NSCLC): > 100 µM
TGI (HCC-2998 colon): > 100 µM
TGI (EKVX NSCLC): > 100 µM
TGI (SF-295 CNS): > 100 µM
TGI (K-562 leukemia): > 100 µM
TGI (MALME-3M melanoma): > 100 µM
TGI (MOLT-4 leukemia): > 100 µM
TGI (RPMI-8226 leukemia): > 100 µM
TGI (TK-10 renal): > 100 µM
TGI (COLO 205 colon): > 100 µM
TGI (SNB-75 CNS): > 100 µM
TGI (UACC-257 melanoma): > 100 µM
TGI (OVCAR-3 ovarian): > 100 µM
TGI (MDA-MB-231 breast): > 100 µM
TGI (CAKI-1 renal): > 100 µM
TGI (SR leukemia): > 100 µM
TGI (MDA-MB-435): > 100 µM
TGI (UO-31 renal): > 100 µM
TGI (SF-539 CNS): > 100 µM
TGI (DU-145 prostate): > 100 µM
TGI (BT-549 breast): > 100 µM
TGI (HCT-116 colon): > 100 µM
TGI (OVCAR-8 ovarian): > 100 µM
TGI (MCF7 breast): > 100 µM
TGI (A549 NSCLC): > 100 µM
TGI (IGROV1 ovarian): > 100 µM
TGI (A498 renal): > 100 µM
TGI (MDA-N): > 100 µM
TGI (NCI-H460 lung): > 100 µM
TGI (HT29 colon): > 100 µM
TGI (NCI-H226 lung): > 100 µM
TGI (SK-MEL-28 melanoma): > 100 µM
TGI (RXF 393 renal): > 100 µM
TGI (SK-MEL-2 melanoma): > 100 µM
TGI (HCT-15 colon): > 100 µM
TGI (T-47D breast): > 100 µM
TGI (UACC-62 melanoma): > 100 µM
TGI (PC-3 prostate): > 100 µM
TGI (ACHN renal): > 100 µM
TGI (HL-60(TB) leukemia): > 100 µM
